Laboratory results reported in publication PMC8848768, “Synthesis and evaluation of potent yaku'amide A analogs” (Chemical Science, 2022).
Read-outs that look alike come from different tables or passages of the source. Numbered stars: 1 amine (or outer) side, 2 acyl side, 3 side chain; on linkers, the order of the positions; unused ones are H or OH. Square brackets hold non-standard residues; d marks the D form. Peptide text beside a SMILES is read from it. * marks the point of attachment. Heptanoyl(3-oxo-2,2,4S,6-Me) = CC(C)C[C@H](C)C(=O)C(C)(C)C(=O)*; NH((S)-1-NMe2-3-Me-but-2-yl) = CC(C)[C@@H](CN(C)C)N*; Ile(3R-OH) = CC[C@@](C)(O)[C@H](N)C(=O)O; dVal(3-OH) = CC(C)(O)[C@@H](N)C(=O)O; d(aIle) = CC[C@H](C)[C@@H](N)C(=O)O; Val(3-OH) = CC(C)(O)[C@H](N)C(=O)O; X1 = CCC(CC)=C(N[*:1])C(=O)[*:2]; ΔVal = CC(C)=C(N)C(=O)O

Columns and labels:
SNUC1 = assay: cells; conditions: read-out: Aver IC50, SNUC1
Description: (§1) The antiproliferative activity profiles of 1a, its full-length analogs 2a and 2b, and its partial structures (23, 24, 26, and 30) were determined by in vitro screening in 72 hours MTS cell proliferation assays against a panel of 18 different human cancer cell lines. […] The three peptides were also evaluated for their antiproliferative activity against the lung fibroblast MRC5 cell line.
(§2) Cells (40 µ L) are added into individual wells of a 384-well black/clear bottom plate on day zero at concentrations enabling continuous log growth over the course of the assay. On day one, compounds (or DMSO) are transferred using an ATS-liquid handler (100 nL per well) to individual wells containing cells and the cells are treated for 72 hours (37 °C, 5% CO 2) prior to measuring proliferation using MTS reagent following manufacturer’s instructions. Net OD values are determined by subtracting the average OD values of cells (measured on day 1, T = 0) from average total OD value of cells (measured on day 4, T = 72h). IC 50 values are calculated using proprietary software (IC 50 values normalized against all compounds). Results represent n>2 independent studies (in duplicate).
(§3) Table S1. Antiproliferative Data of Compounds 1a, 2a, 2b, 23, 24, 26, and 30.
(§4) Table S2. Human Cell Line Descriptions.
(§5) Human Cell Line* Description
(§6) *All cells were obtained from ATCC and are authenticated

MV411 = assay: cells; conditions: read-out: Aver IC50, MV411
Description: as §1, §2, §3, §4, §5, §6

BXPC3 = assay: cells; conditions: read-out: Aver IC50, BXPC3
Description: as §1, §2, §3, §4, §5, §6

THP1 = assay: cells; conditions: read-out: Aver IC50, THP1
Description: as §1, §2, §3, §4, §5, §6

NCIH1048 = assay: cells; conditions: read-out: Aver IC50, NCIH1048
Description: as §1, §2, §3, §4, §5, §6

CALU6 = assay: cells; conditions: read-out: Aver IC50, CALU6
Description: as §1, §2, §3, §4, §5, §6

PANC1005 = assay: cells; conditions: read-out: Aver IC50, PANC1005
Description: as §1, §2, §3, §4, §5, §6

HCT116 = assay: cells; conditions: read-out: Aver IC50, HCT116
Description: as §1, §2, §3, §4, §5, §6

[1] = tested on: lung fibroblast MRC5 cell line; assay: cells; conditions: read-out: Aver IC50, MRC5
Description: as §1, §2, §3, §4, §5, §6

JURKAT = assay: cells; conditions: read-out: Aver IC50, JURKAT
Description: as §1, §2, §3, §4, §5, §6

HT29 = assay: cells; conditions: read-out: Aver IC50, HT29
Description: as §1, §2, §3, §4, §5, §6

COLO678 = assay: cells; conditions: read-out: Aver IC50, COLO678
Description: as §1, §2, §3, §4, §5, §6

RAMOS = assay: cells; conditions: read-out: Aver IC50, RAMOS
Description: as §1, §2, §3, §4, §5, §6

OVCAR3 = assay: cells; conditions: read-out: Aver IC50, OVCAR3
Description: as §1, §2, §3, §4, §5, §6

A549 = assay: cells; conditions: read-out: Aver IC50, A549
Description: as §1, §2, §3, §4, §5, §6

HL60 = assay: cells; conditions: read-out: Aver IC50, HL60
Description: as §1, §2, §3, §4, §5, §6

U937 = assay: cells; conditions: read-out: Aver IC50, U937
Description: as §1, §2, §3, §4, §5, §6

A375 = assay: cells; conditions: read-out: Aver IC50, A375
Description: as §1, §2, §3, §4, §5, §6

MCF7 = conditions: read-out: Aver IC50, MCF7; MCF7 (Breast Carcinoma); MTS, 72 hours, 37 °C, 5% CO2, 384-well; n>2 independent studies (in duplicate)
Description: as §1, §2, §3, §4, §5, §6

[2] = SNUC1 (Colon Carcinoma), MTS, 72 hours, 37 °C, 5% CO2, 384-well, n>2 independent studies (in duplicate)
[3] = MV411 (Acute Myeloid Leukemia), MTS, 72 hours, 37 °C, 5% CO2, 384-well, n>2 independent studies (in duplicate)
[4] = BXPC3 (Pancreatic - Adenocarcinoma), MTS, 72 hours, 37 °C, 5% CO2, 384-well, n>2 independent studies (in duplicate)
[5] = THP1 (Acute Monocytic Leukemia), MTS, 72 hours, 37 °C, 5% CO2, 384-well, n>2 independent studies (in duplicate)
[6] = NCIH1048 (Lung - SCLC), MTS, 72 hours, 37 °C, 5% CO2, 384-well, n>2 independent studies (in duplicate)
[7] = CALU6 (Lung - Adenocarcinoma), MTS, 72 hours, 37 °C, 5% CO2, 384-well, n>2 independent studies (in duplicate)
[8] = PANC1005 (Pancreatic - Adenocarcinoma), MTS, 72 hours, 37 °C, 5% CO2, 384-well, n>2 independent studies (in duplicate)
[9] = HCT116 (Colon Carcinoma), MTS, 72 hours, 37 °C, 5% CO2, 384-well, n>2 independent studies (in duplicate)
[10] = MRC5 (Lung Fibroblast, noncancerous), MTS, 72 hours, 37 °C, 5% CO2, 384-well, n>2 independent studies (in duplicate)
[11] = JURKAT (acute T-cell leukemia), MTS, 72 hours, 37 °C, 5% CO2, 384-well, n>2 independent studies (in duplicate)
[12] = HT29 (Colon Carcinoma), MTS, 72 hours, 37 °C, 5% CO2, 384-well, n>2 independent studies (in duplicate)
[13] = COLO678 (Colon Carcinoma), MTS, 72 hours, 37 °C, 5% CO2, 384-well, n>2 independent studies (in duplicate)
[14] = RAMOS (Burkitt's lymphoma), MTS, 72 hours, 37 °C, 5% CO2, 384-well, n>2 independent studies (in duplicate)
[15] = OVCAR3 (Ovary - Adenocarcinoma), MTS, 72 hours, 37 °C, 5% CO2, 384-well, n>2 independent studies (in duplicate)
[16] = A549 (Lung - NSCLC), MTS, 72 hours, 37 °C, 5% CO2, 384-well, n>2 independent studies (in duplicate)
[17] = HL60 (Leukema - Promyelocytic), MTS, 72 hours, 37 °C, 5% CO2, 384-well, n>2 independent studies (in duplicate)
[18] = U937 (Pro-monocytic, Human Myeloid Leukemia), MTS, 72 hours, 37 °C, 5% CO2, 384-well, n>2 independent studies (in duplicate)
[19] = A375 (Malignant Melanoma), MTS, 72 hours, 37 °C, 5% CO2, 384-well, n>2 independent studies (in duplicate)

With `CC[C@@]1(O)C(=O)OCc2c1cc1n(c2=O)Cc2cc3ccccc3nc2-1` [Camptothecin, reference compound] the IC50 (SNUC1; Homo sapiens, SNU-C1, 72 h) was 47.4 nM, the IC50 (MV411; Homo sapiens, MV4-11, 72 h) was 7.1 nM and the IC50 (BXPC3; Homo sapiens, BXPC-3, 72 h) was 38.4 nM. For the same compound, the IC50 (THP1; Homo sapiens, THP-1, 72 h) was 44.9 nM, the IC50 (NCIH1048; Homo sapiens, NCI-H1048, 72 h) was 9.7 nM and the IC50 (CALU6; Homo sapiens, Calu-6, 72 h) was 10.2 nM. It also gave an IC50 (PANC1005; Homo sapiens, Panc1005, 72 h) of 45.3 nM, an IC50 (HCT116; Homo sapiens, HCT-116, 72 h) of 10.9 nM and an IC50 ([1]; Homo sapiens, MRC5, 72 h) of 52.5 nM. For the same compound, the IC50 (JURKAT; Homo sapiens, Jurkat, 72 h) was 7.3 nM, the IC50 (HT29; Homo sapiens, HT-29, 72 h) was 103 nM and the IC50 (COLO678; Homo sapiens, COLO-678, 72 h) was 126 nM. The IC50 (RAMOS; Homo sapiens, Ramos, 72 h) was 9.7 nM, the IC50 (OVCAR3; Homo sapiens, OVCAR-3, 72 h) was 53.4 nM and the IC50 (A549; Homo sapiens, A549, 72 h) was 27.7 nM. For the same compound, the IC50 (HL60; Homo sapiens, HL-60, 72 h) was 21 nM, the IC50 (U937; Homo sapiens, U-937, 72 h) was 19.7 nM and the IC50 (A375; Homo sapiens, A-375, 72 h) was 5.9 nM.

`CCC(CC)=C(NC(=O)CNC(=O)C(NC(=O)[C@@H](NC(=O)C(C)(C)C(=O)[C@@H](C)CC(C)C)[C@](C)(O)CC)=C(C)C)C(=O)N[C@@H](C(=O)N[C@@H](C(=O)N[C@@H](C(=O)N[C@H](C(=O)NC(C(=O)N[C@H](C)C(=O)N[C@@H](C(=O)N[C@H](C(=O)NC(C(=O)N[C@H](CN(C)C)C(C)C)=C(C)C)C(C)C)C(C)C)=C(C)C)C(C)(C)O)C(C)(C)O)[C@@H](C)CC)C(C)C` [Compound 2b] ({Heptanoyl(3-oxo-2,2,4S,6-Me)}-[Ile(3R-OH)][ΔVal]G[X1][dV][d(aIle)][dVal(3-OH)][Val(3-OH)][ΔVal][dA][dV]V[ΔVal]-{NH((S)-1-NMe2-3-Me-but-2-yl)}) gave an IC50 (SNUC1; [2]) of 58.3 nM, an IC50 (MV411; [3]) of 48.8 nM and an IC50 (BXPC3; [4]) of 9310 nM. It also gave an IC50 (THP1; [5]) of 9690 nM, an IC50 (NCIH1048; [6]) of 2370 nM and an IC50 (CALU6; [7]) of 1000 nM. The IC50 (PANC1005; [8]) was 8810 nM, the IC50 (HCT116; [9]) was 4260 nM and the IC50 [1, 10] was 17500 nM. It also gave an IC50 (JURKAT; [11]) of 13400 nM, an IC50 (HT29; [12]) of 5250 nM and an IC50 (COLO678; [13]) of 6500 nM. For the same compound, the IC50 (RAMOS; [14]) was 1200 nM, the IC50 (OVCAR3; [15]) was 186 nM and the IC50 (A549; [16]) was 249 nM. For the same compound, the IC50 (HL60; [17]) was 465 nM, the IC50 (U937; [18]) was 947 nM and the IC50 (A375; [19]) was 254 nM. The IC50 (MCF7) was 13000 nM.

For `CC(=O)N[C@@H](C(=O)N[C@H](C(=O)NC(C(=O)N[C@H](CN(C)C)C(C)C)=C(C)C)C(C)C)C(C)C` [Compound 23], the IC50 (SNUC1; [2]) was greater than 25000 nM, the IC50 (MV411; [3]) was greater than 25000 nM and the IC50 (BXPC3; [4]) was greater than 25000 nM. It also gave an IC50 (THP1; [5]) greater than 25000 nM, an IC50 (NCIH1048; [6]) greater than 25000 nM and an IC50 (CALU6; [7]) greater than 25000 nM. It also gave an IC50 (PANC1005; [8]) greater than 25000 nM, an IC50 (HCT116; [9]) greater than 25000 nM and an IC50 [1, 10] greater than 25000 nM. For the same compound, the IC50 (JURKAT; [11]) was greater than 25000 nM, the IC50 (HT29; [12]) was greater than 25000 nM and the IC50 (COLO678; [13]) was greater than 25000 nM. For the same compound, the IC50 (RAMOS; [14]) was greater than 25000 nM, the IC50 (OVCAR3; [15]) was greater than 25000 nM and the IC50 (A549; [16]) was greater than 25000 nM. It also gave an IC50 (HL60; [17]) greater than 25000 nM, an IC50 (U937; [18]) greater than 25000 nM and an IC50 (A375; [19]) greater than 25000 nM.
